The values that follow come from US4563453A, “Thiazine derivatives, processes for preparation thereof and pharmaceutical composition comprising the same” (Fujisawa Pharmaceutical Co., Ltd., priority 1983, dated 1986).

One test has as its system Arthus foot edema. The experiment in a line: Arthus foot edema (paw edema in rats). Particulars: rat, oral, 100 mg/kg, 60 minutes before phlogogen; edema volume 3 hours after egg albumin i.v./anti egg albumin antiserum subplantar. It is filed as in vivo, Male Sprague-Dawley rats. As for the experimental part: TEST B (Arthus foot edema)
Five male Sprague-Dawley rats weighing about 200 g were used per group.
Paw edema was induced by intravenous injection of egg albumin (0.5 mg/rat) and subplantar injection of anti egg albumin antiserum (0.1 ml/rat) in Arthus type foot edema. The test drug was suspended in methylcellulose and administered orally 60 minutes before phlogogen. Paw volume was measured with plethysmometer (Ugo Basil Co., Ltd.) by water displacement immersing the paw to the lateral malleolus. The difference of paw volume before and 3 hours after the phlogogen was designated as edema volume. The data were analyzed statistically by student's t-test.

A further test relates to Carrageenin foot edema. The experiment in a line: Carrageenin foot edema (paw edema in rats). To be noted: rat, oral, 10.0 mg/kg, 60 minutes before phlogogen; edema volume 3 hours after 1% carrageenin. Type of test: in vivo, Male Sprague-Dawley rats. As for the experimental part:
TEST A (Carrageenin foot edema)
Male Sprague-Dawley rats weighing about 200 g were used in groups of five. Paw edema was induced by subplantar injection of 1% carrageenin (0.1 ml/rat) into the right hind paw. The test drug was suspended in 0.5% methylcellulose and administered orally 60 minutes before phlogogen. Paw volume was measured with plethysmometer (Ugo Basil Co., Ltd.) by water displacement immersing the paw to the lateral malleolus. The difference of paw volume before and 3 hours after the phlogogen was designated as edema volume. The data was analyzed statistically by student's t-test.

Regarding `CN1C(C(=O)Nc2ccc(O)c(=O)cc2)=C(O)c2sccc2S1(=O)=O` [4-Hydroxy-2-methyl-N-(2-hydroxy-1-oxo-2,4,6-cycloheptatrien-5-yl)-2H-thieno[2,3-e]-1,2-thiazine-3-carboxamide 1,1-dioxide], the “Inhibition (%)” value in the test on Arthus foot edema was determined as 37.8%.

Consider `CN1C(C(=O)Nc2cccccc2=O)=C(O)c2sccc2S1(=O)=O` [(a), 4-Hydroxy-2-methyl-N-(1-oxo-2,4,6-cycloheptatrien-2-yl)-2H-thieno[2,3-e]-1,2-thiazine-3-carboxamide 1,1-dioxide], for which, in the test with Carrageenin foot edema, the “Inhibition (%)” value is recorded as 63.6%.

As to `CN1C(C(=O)Nc2cccccc2=O)=C(O)c2sc3ccccc3c2S1(=O)=O` [(b), 4-Hydroxy-2-methyl-N-(1-oxo-2,4,6-cycloheptatrien-2-yl)-2H-[1]benzothieno[2,3-e]-1,2-thiazine-3-carboxamide 1,1-dioxide], the “Inhibition (%)” value with Carrageenin foot edema is listed as 34%.
